The METLIN SMRT retention time set (Domingo-Almenara et al. 2019)

Assay: gradient 5% acetonitrile 3 min, to 50% in 2 min, to 85% in 15 min, held 3 min, 100 µL/min
Details: column: Zorbax Extend-C18 2.1 x 50 mm; eluents: water / acetonitrile, 0.1% formic acid
In short: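 A Zorbax Extend-C18 column (2.1 × 50 mm, 1.8 μm) run at 100 μL/min with water and acetonitrile, both containing 0.1% formic acid, separated mixtures of ~100 pure standards. The HPLC was coupled to a quadrupole time-of-flight mass spectrometer operated in positive and negative ionization mode, with dead and dwell volumes of 40 μL and 900 μL. Each retention time was taken from a computationally picked adduct peak that was then manually inspected.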

Structure (SMILES) | RP-LC retention time [s]
O=C(NC1CCCC1)c1c2c(nc3ccccc13)CCCC2 | 625
CC1CCCCN1CCCNC(=O)CN1C(=O)CSc2cccn2-c2ccccc21 (centres undefined) | 651
CCN1c2cc(C(=O)NCc3ccc(SC)cc3)ccc2C(=O)N2CCCCC21 (centres undefined) | 856
Cc1sc(NC(=O)C2CCCCC2)nc1-c1ccc2c(c1)NC(=O)C(C)O2 (centres undefined) | 940
CCn1cc(C(CNC(=O)Nc2ccc(OC)cc2OC)c2cccnc2)c2ccccc21 (centres undefined) | 700
O=C1NC2(CCN(C(=O)c3ccc(F)cc3)CC2)N=C1c1cccc(F)c1 | 635
CN(C)C(=O)c1cccnc1OC1CCN(C(=O)c2ccc(Br)o2)C1 (centres undefined) | 663
CC(C)c1csc(-c2csc(S(=O)(=O)NCc3ccc4c(c3)OCO4)c2)n1 | 1050
CCN1C(=O)c2cc(S(=O)(=O)Nc3ccc(C)cc3)ccc2Oc2cccnc21 | 970
CCC(C)Sc1nnc(-c2cn(C)nc2OC)n1CCOC (centres undefined) | 634
COc1ccc(OC)c2sc(NC(=O)C3CCCCN3S(C)(=O)=O)nc12 (centres undefined) | 793
O=C(C1=CCN(Cc2ccccc2)CC1)N1CCN(c2ccc(F)cc2)CC1 | 655
COc1cc(OC)cc(-c2nnc(Cc3nc(-c4ccccc4Cl)no3)o2)c1 | 1020
CCCN(CC1CCOC1)C(=O)Nc1ccc(OC)c(F)c1 (centres undefined) | 777
Cc1nc(OCC(=O)Nc2ccc(F)c(Cl)c2)c2ccccc2n1 | 782
CCOC(=O)Nc1nc(CC(=O)NCCc2c[nH]c3ccccc23)cs1 | 680
Cc1cc(OCC(=O)Nc2ccc(C)c(C)c2)nc(N2CCN(c3ccccc3)CC2)n1 | 911
CNC(=O)N1CCCC(c2cccc(C(=O)N3CCN(c4ccccc4Cl)CC3)c2)C1 (centres undefined) | 904
COc1cccc(C(=O)NCCCn2cccc2)c1 | 749
COc1ccc(NC(=O)Cn2nc(N3CCSCC3)c3ccccc3c2=O)cc1 | 1180
COC(=O)COc1cc(-c2ccccc2)nc2ccc(NS(=O)(=O)c3ccccc3)cc12 | 774
Cc1ccccc1CNC(=O)C1CCCN(S(=O)(=O)c2c[nH]c(C(=O)N3CCCC3)c2)C1 (centres undefined) | 877

Structure (SMILES) | RP-LC retention time [s]
Cc1oc(-c2[nH]ncc2C(=O)N2CCCCC2)cc1S(=O)(=O)N1CCOCC1 | 654
CCn1c(C(=O)Nc2ccc(C)c(C)c2)cc2sc(Cl)cc21 | 1300
CN(C)c1cccc(C(=O)Nc2ccc(CC(=O)NC(C)(C)CO)cc2)c1 | 594
COc1ccc(NC(=O)NC2CCN(c3ccc(F)cc3)C2=O)cc1OC (centres undefined) | 722
Cc1ccc(CNC(=O)CN2C(=O)CCCc3cc(S(=O)(=O)N4CCCCC4)ccc32)cc1 | 891
COCC(CN1CCN(C2=NS(=O)(=O)c3ccccc32)CC1)OC(=O)c1ccc(C)cc1 (centres undefined) | 646
COc1ccccc1-c1noc(C2CCCN2C(=O)Cc2c[nH]c3ccccc23)n1 (centres undefined) | 838
O=C(c1[nH]c2ccccc2c1Sc1ccc(Cl)cc1)N1CCN(c2ccccn2)CC1 | 825
CCCCN(C)c1ccc(NC(=O)Cc2cccs2)c(C(=O)O)c1 | 759
Cc1nnc(C2CC3(CCN(Cc4ccccc4)CC3)CN2Cc2ccccc2)o1 (centres undefined) | 636
O=C(Nc1ccc2c(c1)OCCO2)N1CCC(OCCOc2ccccc2)CC1 | 891
CCC(=O)N1CCc2cc(-c3ccc(C(=O)NC(C)C(=O)N4CCCCC4)cc3)ccc21 (centres undefined) | 846
COc1c2c(cc3c1[C@@H]1Oc4c(ccc(O)c4CC=C(C)C)[C@@H]1CO3)OC(C)(C)C=C2 | 710
O=C(NC1CC1)c1ccc(N2CCC(NCc3cc(F)ccc3O)C2)nc1 (centres undefined) | 544
CC(C)CCNC(=O)C1CCN(c2nc3ccsc3c(=O)n2Cc2ccccc2)CC1 | 890
CC1CCN(c2cncnc2-n2cc(NC(=O)NC(C)(C)C)cn2)CC1 | 722
CC1=C(c2ccccc2)S(=O)(=O)N=C1N1CCCN(C(=O)c2cccs2)CC1 | 770
CCN1c2ccc(F)cc2C(=O)NC12CCN(C(=O)c1ccccc1C)CC2 | 835
Cc1ccc2oc(C(=O)Nc3ccc(-n4cnnn4)cc3)c(C)c2c1 | 933
Cc1noc(-c2ccc(=O)n(C(C)C)n2)n1 | 715
O=C(Nc1ccccc1Br)N1CCN(CCn2cnc3cccnc32)CC1 | 595
Cc1ccc(-c2nnc(SCC(=O)Nc3ccc(C)cc3Br)o2)cc1 | 830
